Values after ≈ are worked out from the molar mass of the structure shown. Where two headings read alike, the source gives them in different places.
Legend:
[1] = tested on: Escherichia coli strain ECM6704 (vector pUCP24 alone); assay: microbe, parasite or virus in culture; type: cell-based; conditions: E. coli ECM6704, vector alone, cation-adjusted Mueller-Hinton broth, 18 h, 35° C.
Experimental: (§1) MICs were recorded after an eighteen-hour growth at 35° C. […] In Table 1, all genes were cloned into vector pUCP24 and introduced into Escherichia coli strain.

[2] = tested on: Enterobacter cloacae ECL1055 (KPC-3, TEM); assay: MIC, CLSI broth microdilution, clinical strain ECL1055; type: cell-based; conditions: clinical strain ECL1055, Enterobacter loacae, 18 h, 35° C.
[3] = tested on: Enterobacter cloacae ECL1036 (KPC-3, TEM-1); assay: microbe, parasite or virus in culture; type: cell-based; conditions: 18 h
[4] = tested on: Enterobacter cloacae ECL1026 (KPC-2, TEM-1); assay: microbe, parasite or virus in culture; type: cell-based; conditions: 18 h
[5] = tested on: Escherichia coli strain ECM6702 expressing KPC-3 β-lactamase; assay: microbe, parasite or virus in culture; conditions: 18 h
Experimental: as §1

[6] = tested on: Escherichia coli strain ECM6701 expressing KPC-2 β-lactamase; assay: microbe, parasite or virus in culture; conditions: 18 h
Experimental: as §1

[7] = tested on: Escherichia coli EC1007 (KPC-3); assay: microbe, parasite or virus in culture; conditions: 18 h
[8] = tested on: Klebsiella pneumoniae KP1008 (KPC-2); assay: microbe, parasite or virus in culture; conditions: 18 h
[9] = tested on: Citrobacter freundii CF1012 (KPC-2); assay: microbe, parasite or virus in culture; conditions: 18 h
[10] = tested on: Escherichia coli EC1007 (KPC-3); conditions: clinical strain EC1007, Escherichia coli, 18 h, 35° C.
[11] = tested on: Klebsiella pneumoniae KP1008 (KPC-2); conditions: clinical strain KP1008, Klebsiella pneumoniae, 18 h, 35° C.
[12] = tested on: Citrobacter freundii CF1012 (KPC-2); conditions: clinical strain CF1012, Citrobacter freundii, 18 h, 35° C.
[13] = target: purified KPC-2 β-lactamase (Klebsiella pneumoniae, UniProt Q9F663); assay: Kinetics of monobactam hydrolysis by purified KPC-2
Chain of purified KPC-2 β-lactamase (Q9F663 25-293 limits assumed): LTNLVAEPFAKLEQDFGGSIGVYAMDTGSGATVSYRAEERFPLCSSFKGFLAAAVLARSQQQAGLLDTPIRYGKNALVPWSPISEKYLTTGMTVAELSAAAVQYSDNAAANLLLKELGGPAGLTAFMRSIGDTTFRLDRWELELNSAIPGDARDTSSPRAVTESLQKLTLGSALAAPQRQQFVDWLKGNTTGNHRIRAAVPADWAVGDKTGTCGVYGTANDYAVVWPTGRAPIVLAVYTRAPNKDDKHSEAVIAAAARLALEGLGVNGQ
Experimental: The optical density was checked every 2 minutes for 2 hours. […] Vmax and Km values were calculated using “Prizm” software (“GraphPad”). Kcat values were calculated using the equation kcat=Vmax/[enzyme concentration].

[14] = Escherichia coli, read-out: MIC

Structure (SMILES)	MIC [1, 14]	MIC ([2]; Enterobacter cloacae, read-out: MIC)	MIC ([3]; Enterobacter cloacae)	MIC ([4]; Enterobacter cloacae)	MIC ([5]; Escherichia coli)	MIC ([6]; Escherichia coli)	MIC [7]	MIC [8]	MIC [9]	MIC [2]	MIC [10]	MIC [11]	MIC ([3]; clinical strain ECL1036, Enterobacter Vcloacae, KPC-3, TEM-1, 35° C.)	MIC ([4]; clinical strain ECL1026, Enterobacter cloacae, KPC-2, TEM-1, 35° C.)	MIC ([5]; E. coli ECM6702, KPC-3, cation-adjusted Mueller-Hinton broth, 35° C.)	MIC ([6]; E. coli ECM6701, KPC-2, cation-adjusted Mueller-Hinton broth, 35° C.)	MIC [12]	Km ([13]; 50 mM sodium phosphate pH 7.0, 0.1 mg/ml BSA, 37° C., OD 318 nm)	kcat ([13]; kcat=Vmax/[enzyme concentration])	MIC [1]
C[C@H]1[C@H](NC(=O)/C(=N\OC(C)(C)C(=O)O)c2csc(N)n2)C(=O)N1S(=O)(=O)O [Aztreonam, aztreonam]	≤ 0.125 µg/mL	–	–	–	–	–	–	–	–	–	–	–	–	–	–	–	–	–	–	–
NC(=O)OC[C@@H]1[C@H](NC(=O)/C(=N\OCC(=O)O)c2csc(N)n2)C(=O)N1S(=O)(=O)O [Carumonam, carumonam]	≤ 0.125 µg/mL	4 µg/mL (≈ 8.58 µM)	2 µg/mL (≈ 4.29 µM)	2 µg/mL (≈ 4.29 µM)	0.25 µg/mL (≈ 0.536 µM)	0.25 µg/mL (≈ 0.536 µM)	1 µg/mL (≈ 2.14 µM)	0.5 µg/mL (≈ 1.07 µM)	2 µg/mL (≈ 4.29 µM)	–	–	–	–	–	–	–	–	–	–	–
CC1(C)[C@H](NC(=O)/C(=N\OCC(=O)O)c2csc(N)n2)C(=O)N1OS(=O)(=O)O [Tigemonam, tigemonam]	–	–	–	–	–	–	–	–	–	8 µg/mL (≈ 18.3 µM)	1 µg/mL (≈ 2.29 µM)	1 µg/mL (≈ 2.29 µM)	8 µg/mL (≈ 18.3 µM)	4 µg/mL (≈ 9.14 µM)	0.5 µg/mL (≈ 1.14 µM)	0.25 µg/mL (≈ 0.572 µM)	8 µg/mL (≈ 18.3 µM)	678 µM	0.233 s⁻¹	<=0.125 μg/ml
